Experimental data from patent US8158623B2, “Heptacyclic compounds and the pharmaceutical uses thereof for preventing and treating diabetes and metabolic syndrome” (Shanghai Institute of Materia Medica Chinese Academy of …, priority 2007, dated 2012).
“Also recorded” adds a separate entry of the source.

Legend:
[1] = tested on: Acetyl CoA Carboxylase (ACC); test: Phosphorylation of ACC in HepG2 cell (Western blot); format: cell-based, Human; details: HepG2, 50 uM, 5 minutes, P<0.01 or P<0.05
Experimental: (§1) Human hepatoma carcinoma cell strain (HepG2, purchased from the cell bank of Shanghai Institute of Cell Biology of Chinese Academy) was used. The Human hepatoma carcinoma cells were passaged by 0.1% pancreatin/0.02% EDTA digestion, and cultured in a incubator at 37° C. using MEM culture medium containing 10% FBS, under 5% CO2/95%.
(§2) HepG2 cells were cultured in 6-well plates for 48 hours until 70%-80% confluence. Serum starvation was started by changing medium with MEM containing 0.5% BSA. After starvation for 6 hours, cells were treated with the compounds (final concentration of 50 uM, containing 0.25% DMSO) for 5 minutes. The culture medium was discarded, and cells were harvested and washed for twice with pre-cooled PBS. The washing liquid was discarded, and any residual PBS was blotted dry. DMSO without heptacyclic compounds was used as control.
(§3) Extraction of total cellular protein: 150 μl/well homogenizing buffer (137 mM NaCl, 2.7 mM KCl, 1 mM MgCl2, 0.5 mM Na3VO4, 1% Triton X-100, 10% Glycerol, 20 mM Tris-HCl pH 7.8, 1 ug/ml Leupeptin, 0.2 mM PMSF, 10 mM NaF, 1 ug/ml Aprotinin, 1 mM EDTA, 1 mM DTT, 5 mM Sodium pyrophosphate, 1 mM Benzamidine) was added. Cells were collected into a 1.5 ml centrifuge tube using cell scraper. Cells were homogenized using sonicator (5 W of power) for 2 times (3 seconds per time), and shaken on a shaker for 1 hour. Supernatant (i.e., total cellular protein) was collected by centrifuging at 14000 rpm for 15 min at 4° C., and stored at −70° C. until use. After the protein concentration was determined by Bradford method, the supernatant was formulated as the loading sample with final concentration of 0.6 mg/ml. The whole preparation process was performed at 4° C.
(§4) Protein Electrophoresis: After being treated at 95° C. for 5 min, the loading sample was loaded (15 μg protein/lane). The protein was separated on 7.5% SDS-acrylamide gel for 1-2 hours under the voltage of 80-120 V.
(§5) Electrotransferring the protein and blocking the membrane: After electrophoresis was finished, the protein was transferred to PVDF membrane using semi-dry transferring slot based on 0.8 mA/cm^2 membrane area under the electric current of 80 mA for 2 hours. After that, the membrane was shaken for 2 hours with 7.5% skim milk/TTBS to block the membrane.
(§6) Antigen-antibody reaction: After the blocking process was finished, the membrane was incubated with primary antibody (antibody against phosphorylated ACC (P-ACC) and antibody against phosphorylated AMPK (P-AMPK), all purchased from Cell signaling (USA), with the working concentration of 1:1000) overnight at 4° C. The membrane was removed, and the primary antibody was recovered. The membrane was washed 5 times, each for 10 min in TTBS. The membrane was shaken for 2 hours with the secondary antibody (horseradish peroxidase-conjugated goat-anti-rabbit IgG antibody, purchased from Bio-rad (USA), with the working concentration of 1:5000) at room temperature. The secondary antibody was discarded. The membrane was washed 5 times, each for 10 min in TTBS in order to remove the unbound secondary antibody.
(§7) ECL exposure and development: Luminescent agents, ECL 1, 2, were mixed homogeneously, and incubated with the membrane for 3-5 min. The membrane was removed, wrapped in preservative film, and transferred into dark room for exposure. After exposure with X-film, the film was developed, washed, recorded and conserved.
(§8) Semi-quantitative analysis was performed through optical density scan using computer image analysis system. Grey level of the protein expression was calculated. The target grey level was divided by the grey level of internal standard, and a histogram was plotted, taking the normal group as 1 unit.

[2] = tested on: AMP-Activated Protein Kinase (AMPK); test: Phosphorylation of AMPK in HepG2 cell (Western blot); format: cell-based, Human; details: HepG2, 50 uM, 5 minutes, P<0.01 or P<0.05
Experimental: as §1, §2, §3, §4, §5, §6, §7, §8

[3] = tested on: ob/ob mice; test: Effect of F7 on glucose and lipid metabolic disorder, serum biochemical indicators; format: in vivo; details: oral 50 mg/kg once daily for 3 weeks
Experimental: Genetic spontaneous diabetes ob/ob mice were purchased from Jackson (USA), and maintained in a SPF facility (temperature: 22-24° C., humidity: 45-80%, illumination: 150-300 Lx, 12/12-hour light/dark cycle). Fasting blood glucose was determined daily for 3 days continuously when the mice were 7 weeks old. The mice were grouped into the treatment group and the control group (8 animals per group) according to the results determined. The two groups were administered orally with compound F7 (50 mg/kg) and a solution of 0.1% Tween 80 respectively, once daily for 3 weeks. Another group of C57 mice was used as normal control. At the end of administration, blood samples were collected in each group, the serum was separated and serum biochemical indicators were detected.

What does the source list for `COc1cc(C(=O)O)c2c(c1C)OC(=O)c1c(C)cc(O)c(C=O)c1O2` [Compound F7, 4-Formyl-3-hydroxy-8-methoxy-1,9-dimethyl-11-oxo-11H-dibenzo[b,e][1,4]dioxepine-6-carboxylic acid]?
Level of phosphorylation for ACC protein versus DMSO control [1]: improved significantly; Level of phosphorylation for AMPK protein versus DMSO control [2]: significant up-regulation; also recorded: increased significantly; CHOL (total cholesterol), serum [3]: 6.0 ± 0.8 mmol/L; FRU (fructosamine), serum [3]: 225.0 ± 40.4 µmol/L; NFFA (unsaturated free fatty acid), serum [3]: 1.15 ± 0.17 mmol/L; TG (triglycerides), serum [3]: 72.1 ± 11.1 mg/dL; UA (uric acid), serum [3]: 316 ± 109 µM
